Data published in the supplement of paper PMC10307832.

How the values were obtained:
Experiment in all cases: relative viability (nuclei count vs DMSO), 5 days (fraction); higher = more cells survive
ChaGo-K-1 = test system: ChaGo-K-1
Method in brief: (§1)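 Lung cancer cell lines in 1536-well plates got either a single drug or a fixed anchor-drug dose together with five library-drug doses (not always all listed) in √10 steps, by pin tool, on the day after seeding. Nuclei were counted after 5 days, and relative viability is the treated-to-vehicle ratio of nuclei counts. Values are medians of duplicate plates.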

EMC-BAC-2 = test system: EMC-BAC-2
Method in brief: as §1

EPLC-272H = test system: EPLC-272H
Method in brief: as §1

H3255 = test system: H3255
Method in brief: as §1

HCC-44 = test system: HCC-44
Method in brief: as §1

HCC-827 = test system: HCC-827
Method in brief: as §1

LCLC-103H = test system: LCLC-103H
Method in brief: as §1

LU99A = test system: LU99A
Method in brief: as §1

NCI-H1395 = test system: NCI-H1395
Method in brief: as §1

NCI-H1651 = test system: NCI-H1651
Method in brief: as §1

NCI-H1793 = test system: NCI-H1793
Method in brief: as §1

NCI-H1944 = test system: NCI-H1944
Method in brief: as §1

NCI-H2085 = test system: NCI-H2085
Method in brief: as §1

NCI-H2087 = test system: NCI-H2087
Method in brief: as §1

NCI-H2405 = test system: NCI-H2405
Method in brief: as §1

NCI-H650 = test system: NCI-H650
Method in brief: as §1

NCI-H838 = test system: NCI-H838
Method in brief: as §1

Molecule `Nc1ccn([C@@H]2O[C@H](CO)[C@@H](O)[C@@H]2O)c(=O)n1` [Cytarabine] + NC(=O)Nc1cc(-c2cccc(F)c2)sc1C(=O)N[C@H]1CCCNC1 [AZD7762] (partner 0.2 µM) has a relative viability (ChaGo-K-1; first compound 0.005 µM) of 0.877, a relative viability (ChaGo-K-1; first compound 0.01581 µM) of 0.643 and a relative viability (ChaGo-K-1; first compound 0.05 µM) of 0.439. For the same molecule, the relative viability (ChaGo-K-1; first compound 0.1581 µM) was 0.249, the relative viability (ChaGo-K-1; first compound 0.5 µM) was 0.199 and the relative viability (EMC-BAC-2; first compound 0.005 µM) was 1.09. For the same molecule, the relative viability (EMC-BAC-2; first compound 0.01581 µM) was 0.97, the relative viability (EMC-BAC-2; first compound 0.05 µM) was 0.674 and the relative viability (EMC-BAC-2; first compound 0.1581 µM) was 0.344. It also gave a relative viability (EMC-BAC-2; first compound 0.5 µM) of 0.308, a relative viability (EPLC-272H; first compound 0.005 µM) of 0.335 and a relative viability (EPLC-272H; first compound 0.01581 µM) of 0.273. For the same molecule, the relative viability (EPLC-272H; first compound 0.05 µM) was 0.117, the relative viability (EPLC-272H; first compound 0.1581 µM) was 0.0659 and the relative viability (EPLC-272H; first compound 0.5 µM) was 0.0636. It also gave a relative viability (H3255; first compound 0.005 µM) of 0.945, a relative viability (H3255; first compound 0.01581 µM) of 0.812 and a relative viability (H3255; first compound 0.05 µM) of 0.764. It also gave a relative viability (H3255; first compound 0.1581 µM) of 0.583, a relative viability (H3255; first compound 0.5 µM) of 0.551 and a relative viability (HCC-44; first compound 0.005 µM) of 1.07. The relative viability (HCC-44; first compound 0.01581 µM) was 0.916, the relative viability (HCC-44; first compound 0.05 µM) was 0.476 and the relative viability (HCC-44; first compound 0.1581 µM) was 0.332. It also gave a relative viability (HCC-44; first compound 0.5 µM) of 0.249, a relative viability (HCC-827; first compound 0.005 µM) of 0.17 and a relative viability (HCC-827; first compound 0.01581 µM) of 0.168. The relative viability (HCC-827; first compound 0.05 µM) was 0.13, the relative viability (HCC-827; first compound 0.1581 µM) was 0.14 and the relative viability (HCC-827; first compound 0.5 µM) was 0.148. The relative viability (LCLC-103H; first compound 0.005 µM) was 0.763, the relative viability (LCLC-103H; first compound 0.01581 µM) was 0.704 and the relative viability (LCLC-103H; first compound 0.05 µM) was 0.751. For the same molecule, the relative viability (LCLC-103H; first compound 0.1581 µM) was 0.469, the relative viability (LCLC-103H; first compound 0.5 µM) was 0.369 and the relative viability (LU99A; first compound 0.005 µM) was 0.444. It also gave a relative viability (LU99A; first compound 0.01581 µM) of 0.362, a relative viability (LU99A; first compound 0.05 µM) of 0.305 and a relative viability (LU99A; first compound 0.1581 µM) of 0.352. It also gave a relative viability (LU99A; first compound 0.5 µM) of 0.115, a relative viability (NCI-H1395; first compound 0.005 µM) of 0.383 and a relative viability (NCI-H1395; first compound 0.01581 µM) of 0.39. The relative viability (NCI-H1395; first compound 0.05 µM) was 0.331, the relative viability (NCI-H1395; first compound 0.1581 µM) was 0.364 and the relative viability (NCI-H1395; first compound 0.5 µM) was 0.351. It also gave a relative viability (NCI-H1651; first compound 0.005 µM) of 0.484, a relative viability (NCI-H1651; first compound 0.01581 µM) of 0.447 and a relative viability (NCI-H1651; first compound 0.05 µM) of 0.297. It also gave a relative viability (NCI-H1651; first compound 0.1581 µM) of 0.114, a relative viability (NCI-H1651; first compound 0.5 µM) of 0.0958 and a relative viability (NCI-H1793; first compound 0.005 µM) of 0.304. The relative viability (NCI-H1793; first compound 0.01581 µM) was 0.417, the relative viability (NCI-H1793; first compound 0.05 µM) was 0.341 and the relative viability (NCI-H1793; first compound 0.1581 µM) was 0.149. It also gave a relative viability (NCI-H1793; first compound 0.5 µM) of 0.111, a relative viability (NCI-H1944; first compound 0.005 µM) of 0.353 and a relative viability (NCI-H1944; first compound 0.01581 µM) of 0.204. It also gave a relative viability (NCI-H1944; first compound 0.05 µM) of 0.159, a relative viability (NCI-H1944; first compound 0.1581 µM) of 0.12 and a relative viability (NCI-H1944; first compound 0.5 µM) of 0.135. It also gave a relative viability (NCI-H2085; first compound 0.005 µM) of 0.997, a relative viability (NCI-H2085; first compound 0.01581 µM) of 0.997 and a relative viability (NCI-H2085; first compound 0.05 µM) of 0.956. It also gave a relative viability (NCI-H2085; first compound 0.1581 µM) of 0.694, a relative viability (NCI-H2085; first compound 0.5 µM) of 0.516 and a relative viability (NCI-H2087; first compound 0.005 µM) of 1.28. The relative viability (NCI-H2087; first compound 0.01581 µM) was 1.56, the relative viability (NCI-H2087; first compound 0.05 µM) was 1.11 and the relative viability (NCI-H2087; first compound 0.1581 µM) was 0.709. It also gave a relative viability (NCI-H2087; first compound 0.5 µM) of 0.231, a relative viability (NCI-H2405; first compound 0.005 µM) of 0.612 and a relative viability (NCI-H2405; first compound 0.01581 µM) of 0.454. For the same molecule, the relative viability (NCI-H2405; first compound 0.05 µM) was 0.445, the relative viability (NCI-H2405; first compound 0.1581 µM) was 0.249 and the relative viability (NCI-H2405; first compound 0.5 µM) was 0.217. For the same molecule, the relative viability (NCI-H650; first compound 0.005 µM) was 0.843, the relative viability (NCI-H650; first compound 0.01581 µM) was 0.26 and the relative viability (NCI-H650; first compound 0.05 µM) was 0.19. For the same molecule, the relative viability (NCI-H650; first compound 0.1581 µM) was 0.146, the relative viability (NCI-H650; first compound 0.5 µM) was 0.162 and the relative viability (NCI-H838; first compound 0.005 µM) was 0.738. For the same molecule, the relative viability (NCI-H838; first compound 0.01581 µM) was 0.699, the relative viability (NCI-H838; first compound 0.05 µM) was 0.665 and the relative viability (NCI-H838; first compound 0.1581 µM) was 0.652. The relative viability (NCI-H838; first compound 0.5 µM) was 0.631.
